# Where two headings read alike, the source gives them in different places.
# How the values were obtained:
# EIF2AK3 = biological target: T1, EIF2AK3 (Homo sapiens, UniProt Q9NZJ5); assay: Kinase profiling; assay type: biochemical
# T1 sequence (Q9NZJ5 30-1116): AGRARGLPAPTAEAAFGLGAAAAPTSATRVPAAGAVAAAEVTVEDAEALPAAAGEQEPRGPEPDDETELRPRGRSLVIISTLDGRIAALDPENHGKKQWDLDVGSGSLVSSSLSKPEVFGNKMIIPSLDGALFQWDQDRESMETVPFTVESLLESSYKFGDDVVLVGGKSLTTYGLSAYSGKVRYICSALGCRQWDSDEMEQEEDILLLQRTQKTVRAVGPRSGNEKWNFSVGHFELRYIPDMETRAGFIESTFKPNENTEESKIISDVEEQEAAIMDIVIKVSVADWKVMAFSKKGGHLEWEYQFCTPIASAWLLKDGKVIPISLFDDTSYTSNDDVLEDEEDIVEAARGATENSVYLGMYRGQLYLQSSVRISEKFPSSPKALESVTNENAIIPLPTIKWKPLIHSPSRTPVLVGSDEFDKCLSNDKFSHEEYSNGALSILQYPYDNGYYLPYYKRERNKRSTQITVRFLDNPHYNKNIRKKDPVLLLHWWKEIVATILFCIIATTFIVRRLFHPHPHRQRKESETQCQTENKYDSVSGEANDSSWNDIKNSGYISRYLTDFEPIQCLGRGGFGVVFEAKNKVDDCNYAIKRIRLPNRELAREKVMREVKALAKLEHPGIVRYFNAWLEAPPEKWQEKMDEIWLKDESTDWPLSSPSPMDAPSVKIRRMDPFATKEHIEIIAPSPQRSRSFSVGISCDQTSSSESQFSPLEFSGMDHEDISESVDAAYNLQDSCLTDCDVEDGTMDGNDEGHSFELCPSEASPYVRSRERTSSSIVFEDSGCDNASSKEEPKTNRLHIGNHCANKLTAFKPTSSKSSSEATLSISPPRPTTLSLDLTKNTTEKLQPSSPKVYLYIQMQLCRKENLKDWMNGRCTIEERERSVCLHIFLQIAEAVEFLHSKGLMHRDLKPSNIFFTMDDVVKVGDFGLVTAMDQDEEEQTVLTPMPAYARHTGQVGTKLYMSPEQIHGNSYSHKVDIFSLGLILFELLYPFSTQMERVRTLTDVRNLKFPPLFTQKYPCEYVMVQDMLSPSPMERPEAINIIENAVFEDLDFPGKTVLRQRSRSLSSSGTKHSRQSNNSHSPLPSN
# [1] = system: Bone-marrow-derived macrophages; assay: IL-10 mRNA (qPCR) in LPS-stimulated macrophages; assay type: cell-based; conditions: Mus musculus, Macrophage, read-out: EC50 for elevation of IL-10 mRNA
# Protocol: Primary macrophages were generated by differentiating bone marrow from 6- to 12-week-old C57BL/6 mice for 7 days in Dulbecco's modified Eagle's medium (DMEM) supplemented with 5 ng/ml recombinant M-CSF (R&D systems), 2 mM glutamine, 10% FBS, penicillin and streptomycin. Bone-marrow-derived macrophages were differentiated on non-tissue-culture-treated plastic, harvested and replated at a density of 100000 cells/cm^2 per 0.1 ml on tissue culture-treated plastic in fresh medium before stimulation on day 8. RAW264.7 cells were cultured in DMEM containing 10% FBS, 2 mM glutamine and penicillin and streptomycin. […] Cells were treated for 1 h with or without inhibitors and then stimulated for up to 24 h with either 1 μg/ml Pam3CSK4 or 100 ng/ml LPS.
# mRNA was extracted from cells using the MicroElute Total RNA kit following the manufacturers’ instructions (Omega Bio-Tek). cDNA was generated from 0.5 μg of total RNA using the iScript cDNA synthesis kit and quantified by quantitative real-time PCR (qPCR) using the SsoFast EvaGreen Supermix on a CFX384 real-time system (Bio-Rad Laboratories). The relative expression of each gene was calculated from CT values using the Pfaffl method and was normalized against the mRNA levels of housekeeping genes including 18S RNA and GAPDH.
# [2] = system: Bone-marrow-derived macrophages; assay: TLR signalling immunoblots (MAPKs, MSK1/2, CREB, IKKs, TBK1); assay type: cell-based, mouse; conditions: for Kinetics of activation of MAPKs including ERK1/2 and p38α/β: 3 μM bosutinib or 0.3 μM dasatinib, LPS or Pam3CSK4; for TLR-stimulated phosphorylation of ERK1/2, JNK1/2, p38α/β MAPKs, MSK1/2, IKKα/β, TBK1 and their direct substrates: 3 μM bosutinib, 0.3 μM dasatinib or 0.5 μM HG-9-91-01
# Protocol: Cells were extracted in lysis buffer [50 mM Tris/HCl, pH 7.4, 1 mM EDTA, 1 mM EGTA, 50 mM NaF, 5 mM sodium pyrophosphate, 10 mM sodium β-glycerol 1-phosphate, 1 mM DTT, 1 mM sodium orthovanadate, 0.27 M sucrose, 1% (v/v) Triton X-100, 1 μg/ml aprotinin, 1 μg/ml leupeptin and 1 mM PMSF]. Cell extracts were clarified by centrifugation and protein concentrations were determined using the Bradford assay. To immunoprecipitate endogenous CRTC3, 1 mg of cell extract was incubated with 5 μg of anti-CRTC3 [13] covalently cross-linked on to Protein G–Sepharose. Immune complexes were washed three times with lysis buffer, eluted in 1% SDS and separated by SDS/PAGE. To detect proteins in cell lysates, 20 μg of protein extract was separated by SDS/PAGE. After transfer to PVDF membranes, proteins were detected by immunoblotting and visualized by treating the blots with ECL (GE Healthcare) followed by autoradiography.
# CLK2 = CLK2 (Homo sapiens, UniProt P49760); assay: Kinase profiling; assay type: biochemical
# PKA = PKA (Homo sapiens, UniProt P17612); assay: Kinase profiling; assay type: biochemical
# MNK2 = MNK2 (Homo sapiens, UniProt Q9HBH9); assay: Kinase profiling; assay type: biochemical
# IRAK4 = biological target: T2, IRAK4 (Homo sapiens, UniProt Q9NWZ3); assay: Kinase profiling; assay type: biochemical
# T2 sequence (Q9NWZ3 1-460): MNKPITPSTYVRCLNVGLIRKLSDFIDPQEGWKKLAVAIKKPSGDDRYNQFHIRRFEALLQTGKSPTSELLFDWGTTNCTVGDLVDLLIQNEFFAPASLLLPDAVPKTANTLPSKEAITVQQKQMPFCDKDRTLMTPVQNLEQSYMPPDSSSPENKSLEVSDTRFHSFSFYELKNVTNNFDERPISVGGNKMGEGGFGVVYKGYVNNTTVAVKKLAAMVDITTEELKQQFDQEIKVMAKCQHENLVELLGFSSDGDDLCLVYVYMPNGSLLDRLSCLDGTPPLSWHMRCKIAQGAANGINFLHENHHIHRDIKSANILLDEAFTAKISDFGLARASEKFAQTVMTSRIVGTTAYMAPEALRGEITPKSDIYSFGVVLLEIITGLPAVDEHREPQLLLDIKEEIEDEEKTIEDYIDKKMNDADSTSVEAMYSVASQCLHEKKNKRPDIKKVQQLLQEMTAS
# MNK2, sequence (Q9HBH9 whole entry): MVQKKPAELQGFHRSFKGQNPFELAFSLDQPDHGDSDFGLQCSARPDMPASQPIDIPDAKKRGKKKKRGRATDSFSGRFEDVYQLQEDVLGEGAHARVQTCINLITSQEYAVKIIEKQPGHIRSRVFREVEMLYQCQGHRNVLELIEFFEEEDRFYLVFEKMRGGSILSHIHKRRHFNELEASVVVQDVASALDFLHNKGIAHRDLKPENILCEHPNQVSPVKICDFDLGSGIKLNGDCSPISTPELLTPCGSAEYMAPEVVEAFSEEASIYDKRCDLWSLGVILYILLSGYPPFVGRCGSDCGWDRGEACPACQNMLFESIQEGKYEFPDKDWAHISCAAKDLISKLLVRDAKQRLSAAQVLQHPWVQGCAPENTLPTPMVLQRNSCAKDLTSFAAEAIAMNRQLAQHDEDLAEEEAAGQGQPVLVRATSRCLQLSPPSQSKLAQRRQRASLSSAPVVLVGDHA
# CLK2, sequence (P49760 whole entry): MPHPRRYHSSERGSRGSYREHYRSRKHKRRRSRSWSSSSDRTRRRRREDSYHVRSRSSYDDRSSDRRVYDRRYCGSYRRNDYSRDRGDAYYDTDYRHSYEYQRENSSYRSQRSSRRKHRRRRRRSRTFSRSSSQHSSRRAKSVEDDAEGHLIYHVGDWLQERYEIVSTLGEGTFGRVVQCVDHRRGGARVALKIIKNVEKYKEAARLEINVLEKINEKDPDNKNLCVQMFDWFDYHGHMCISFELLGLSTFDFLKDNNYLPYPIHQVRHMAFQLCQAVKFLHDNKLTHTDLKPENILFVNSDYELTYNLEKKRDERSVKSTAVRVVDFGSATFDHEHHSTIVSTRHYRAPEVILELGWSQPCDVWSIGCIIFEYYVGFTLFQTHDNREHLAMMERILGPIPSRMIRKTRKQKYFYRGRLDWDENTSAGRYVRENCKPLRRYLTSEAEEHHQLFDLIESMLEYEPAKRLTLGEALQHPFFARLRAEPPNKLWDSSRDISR
SMILES,remaining activity at 0.1 µM (EIF2AK3) [%],remaining activity at 1 µM (EIF2AK3) [%],"EC50 ([1]; drug 1 h, then LPS 1 h, qPCR, n=4) [nM]",Kinetics of activation of MAPKs including ERK1/2 and p38α/β [2],"TLR-stimulated phosphorylation of ERK1/2, JNK1/2, p38α/β MAPKs, MSK1/2, IKKα/β, TBK1 and their direct substrates [2]",remaining activity at 0.1 µM (CLK2) [%],remaining activity at 1 µM (CLK2) [%],remaining activity at 0.1 µM (PKA) [%],remaining activity at 1 µM (PKA) [%],remaining activity at 0.1 µM (MNK2) [%],remaining activity at 1 µM (MNK2) [%],remaining activity at 0.1 µM (IRAK4) [%],remaining activity at 1 µM (IRAK4) [%],EC50 ([1]; 1 h) [nM]
"COc1cc(Nc2c(C#N)cnc3cc(OCCCN4CCN(C)CC4)c(OC)cc23)c(Cl)cc1Cl [Bosutinib, bosutinib]",107 ± 5,103,320,no effect,occurred normally,75 ± 9,23,111 ± 16,105 ± 7,87 ± 6,100 ± 9,55 ± 3,23,–
Cc1nc(Nc2ncc(C(=O)Nc3c(C)cccc3Cl)s2)cc(N2CCN(CCO)CC2)n1 [Dasatinib],106 ± 6,113 ± 2,–,no effect,occurred normally,120 ± 6,121 ± 6,110 ± 12,121 ± 27,97 ± 8,106 ± 2,112 ± 24,102 ± 6,100

# Reference: article PMC4286194 (Biochemical Journal, 2015)
